Source: patent publication US9040519B2, “Fused tetracyclic pyrido [4,3-B] indole and pyrido [3,4-B] indole derivatives and methods of use” (Medivation Technologies, Inc., priority 2010, dated 2015)

What was measured:
[1] = target: T1, rat adrenergic α1A receptor (Rattus norvegicus, UniProt P43140); test: Adrenergic α1A radioligand binding ([3H]Prazosin); conditions: compound at 0.1 μM; Wistar Rat submaxillary glands; read-out: Percentage inhibition of ligand binding, Adrenergic α1A
T1 construct: rat adrenergic α1A receptor obtained from Wistar Rat submaxillary glands; from tissue; host or cells: Wistar rat submaxillary glands
T1 sequence (P43140 1-466): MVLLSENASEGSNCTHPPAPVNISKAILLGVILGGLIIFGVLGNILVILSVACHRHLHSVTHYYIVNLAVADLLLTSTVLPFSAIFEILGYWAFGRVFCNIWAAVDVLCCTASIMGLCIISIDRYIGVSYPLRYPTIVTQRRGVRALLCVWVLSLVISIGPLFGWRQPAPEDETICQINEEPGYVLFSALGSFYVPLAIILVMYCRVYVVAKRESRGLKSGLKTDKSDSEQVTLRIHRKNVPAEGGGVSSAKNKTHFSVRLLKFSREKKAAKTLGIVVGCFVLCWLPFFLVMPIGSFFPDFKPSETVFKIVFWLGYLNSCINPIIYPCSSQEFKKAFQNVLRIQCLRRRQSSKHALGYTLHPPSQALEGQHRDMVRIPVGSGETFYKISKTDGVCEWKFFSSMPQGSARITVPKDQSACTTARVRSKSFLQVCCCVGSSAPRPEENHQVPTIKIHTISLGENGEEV
Procedure: To evaluate in radioligand binding assays the activity of compounds of the invention, rat adrenergic α1A receptor obtained from Wistar Rat submaxillary glands (Michel, A. et al, Br. J. Pharmacol. 98:883, 1989) in a modified Tris-HCl buffer (50 mM Tris-HCl buffer, pH 7.4, 0.5 mM EDTA) was used. Compounds of the invention were incubated with 0.25 nM [^3H]Prazosin for 60 min at 25° C. Non-specific binding was estimated in the presence of 10 μM phentolamine. Receptor proteins were filtered and washed, the filters were then counted to determine [^3H]Prazosin specifically bound. Compounds of the invention were screened at 1 μM or lower, using 1% DMSO as vehicle. Biochemical assay results are presented as the percent inhibition of specific binding in Table 3.

[2] = target: T2, human recombinant adrenergic α2C receptor (Homo sapiens, UniProt P18825); test: Adrenergic α2C radioligand binding ([3H]MK-912); conditions: compound at 0.1 μM; insect Sf9 cells; read-out: Percentage inhibition of ligand binding, Adrenergic α2C
T2 construct: expressed in transfected cells; host or cells: insect Sf9 cells
T2 sequence (P18825 1-462): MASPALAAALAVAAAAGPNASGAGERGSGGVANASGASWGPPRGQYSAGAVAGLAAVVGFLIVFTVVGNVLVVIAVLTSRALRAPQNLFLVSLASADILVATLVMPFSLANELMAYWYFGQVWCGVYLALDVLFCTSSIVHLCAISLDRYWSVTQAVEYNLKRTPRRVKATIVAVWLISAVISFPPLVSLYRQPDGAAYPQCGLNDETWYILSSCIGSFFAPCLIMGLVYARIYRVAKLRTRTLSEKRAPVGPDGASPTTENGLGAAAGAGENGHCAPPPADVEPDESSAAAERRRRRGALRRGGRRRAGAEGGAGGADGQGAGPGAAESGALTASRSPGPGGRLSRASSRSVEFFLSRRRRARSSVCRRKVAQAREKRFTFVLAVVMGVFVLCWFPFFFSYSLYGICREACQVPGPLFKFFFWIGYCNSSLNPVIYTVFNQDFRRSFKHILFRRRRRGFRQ
Procedure: To evaluate in radioligand binding assays the activity of compounds of the invention, human recombinant adrenergic α2C receptor expressed in insect Sf9 cells (Uhlen, S. et al, J. Pharmacol. Exp. Ther. 271:1558, 1994) in a modified Tris-HCl buffer (50 mM Tris-HCl, pH 7.4, 12.5 mM MgCl2, 2 mM EDTA) was used. Compounds of the invention were incubated with 1 nM [^3H]MK-912 for 60 min at 25° C. Non-specific binding was estimated in the presence of 10 μM WB-4101. Receptor proteins were filtered and washed, the filters were then counted to determine [^3H]MK-912 specifically bound. Compounds were screened at 1 μM or lower, using 1% DMSO as vehicle. Biochemical assay results are presented as the percent inhibition of specific binding in Table 3.

[3] = target: T3, human recombinant serotonin (5-Hydroxytryptamine) 5-HT2A receptor (Homo sapiens, UniProt P28223); test: Serotonin 5-HT2A radioligand binding ([3H]Ketanserin); conditions: compound at 0.1 μM; CHO K1 cells; read-out: Percentage inhibition of ligand binding, Serotonin 5-HT2A
T3 construct: expressed in transfected cells; host or cells: CHO-K1
T3 sequence (P28223 whole entry): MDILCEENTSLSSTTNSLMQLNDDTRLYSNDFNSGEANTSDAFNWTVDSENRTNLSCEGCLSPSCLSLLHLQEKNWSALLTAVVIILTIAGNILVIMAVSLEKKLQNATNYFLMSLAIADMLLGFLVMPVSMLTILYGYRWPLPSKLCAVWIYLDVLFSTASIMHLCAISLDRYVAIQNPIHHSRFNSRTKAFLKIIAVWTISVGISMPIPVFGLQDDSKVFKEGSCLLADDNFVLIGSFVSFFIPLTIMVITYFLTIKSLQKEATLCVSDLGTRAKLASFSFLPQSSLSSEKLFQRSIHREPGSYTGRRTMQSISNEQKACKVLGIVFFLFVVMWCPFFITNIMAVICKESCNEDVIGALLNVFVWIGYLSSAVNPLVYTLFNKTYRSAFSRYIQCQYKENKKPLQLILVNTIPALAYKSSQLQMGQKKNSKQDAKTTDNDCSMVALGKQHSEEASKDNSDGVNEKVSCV
Procedure: To evaluate in radioligand binding assays the activity of compounds of the invention, human recombinant serotonin (5-Hydroxytryptamine) 5-HT2A receptor expressed in Chinese hamster ovary (CHO) K1 cells (Bonhaus, D. et al, Br. J. Pharmacol. 115:622, 1995; Saucier, C. et al, J. Neurochem. 68:1998, 1997) in a 50 mM Tris-HCl buffer, pH 7.4, was used. Compounds of the invention were incubated with 0.5 nM [^3H]Ketanserin for 60 min at 25° C. Non-specific binding was estimated in the presence of 1 μM Mianserin. Receptor proteins were filtered and washed, the filters were then counted to determine [^3H]Ketanserin specifically bound. Compounds were screened at 1 μM or lower, using 1% DMSO as vehicle. Biochemical assay results are presented as the percent inhibition of specific binding in Table 4.

[4] = target: T4, human recombinant serotonin (5-Hydroxytryptamine) 5-HT5A receptor (Homo sapiens, UniProt P47898); test: Serotonin 5-HT5A radioligand binding ([3H]LSD); conditions: compound at 0.1 μM; CHO K1 cells; read-out: Percentage inhibition of ligand binding, Serotonin 5-HT5A
T4 construct: expressed in transfected cells; host or cells: CHO-K1
T4 sequence (P47898 whole entry): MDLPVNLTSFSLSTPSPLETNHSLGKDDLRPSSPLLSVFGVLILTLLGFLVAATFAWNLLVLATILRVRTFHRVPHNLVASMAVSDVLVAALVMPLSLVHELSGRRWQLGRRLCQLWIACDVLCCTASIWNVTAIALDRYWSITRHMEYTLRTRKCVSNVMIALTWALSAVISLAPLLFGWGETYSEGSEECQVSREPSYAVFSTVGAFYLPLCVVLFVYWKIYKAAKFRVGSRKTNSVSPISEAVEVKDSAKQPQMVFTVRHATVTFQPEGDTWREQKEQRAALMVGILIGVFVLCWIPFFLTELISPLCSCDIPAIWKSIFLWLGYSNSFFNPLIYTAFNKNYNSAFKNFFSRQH
Procedure: To evaluate in radioligand binding assays the activity of compounds of the invention, human recombinant serotonin (5-Hydroxytryptamine) 5-HT5A receptor expressed in Chinese hamster ovary (CHO) K1 cells (Rees, S. et al, FEBS Lett. 355:242, 1994) in a modified Tris-HCl buffer (50 mM Tris-HCl, pH 7.4, 10 mM MgCl2, 0.5 mM EDTA) was used. Compounds of the invention were incubated with 1.7 nM [^3H]Lysergic acid diethylamide (LSD) for 60 min at 37° C. Non-specific binding was estimated in the presence of 100 μM Serotonin (5-HT). Receptor proteins were filtered and washed, the filters were counted to determine [^3H]LSD specifically bound. Compounds were screened at 1 μM or lower, using 1% DMSO as vehicle. Biochemical assay results are presented as the percent inhibition of specific binding in Table 4.

Cc1ccc2c(c1)c1c3n2CC(c2ccncc2)=CCC3(C)CN(C)C1 (stereo not drawn) [Compound 11, 2,3a,10-trimethyl-6-pyridin-4-yl-1,2,3,3a,4,7-hexahydro-2,7a-diaza-cyclohepta[jk]fluorene]
inhibition at 0.1 µM [1]: 25% | inhibition at 0.1 µM [2]: 1% | inhibition at 0.1 µM [3]: 10% | inhibition at 0.1 µM [4]: 9%

Cc1ccc2c(c1)c1c3n2C(c2ccccc2)=CCC3(C)CN(C)C1 (stereo not drawn) [Compound 10, 2,3a,10-trimethyl-6-phenyl-2,3,3a,4-tetrahydro-1H-indolo[3,2,1-ij][1,6]naphthyridine]
inhibition at 0.1 µM [1]: -4% | inhibition at 0.1 µM [2]: 2% | inhibition at 0.1 µM [3]: 13% | inhibition at 0.1 µM [4]: -8%

Cc1ccc2c(c1)c1c3n2C(c2ccccc2)CCC3(C)CN(C)C1 (stereo not drawn) [Compound 12, 2,3a,10-trimethyl-6-phenyl-2,3,3a,4,5,6-hexahydro-1H-indolo[3,2,1-ij][1,6]naphthyridine]
inhibition at 0.1 µM [1]: 12% | inhibition at 0.1 µM [2]: -3% | inhibition at 0.1 µM [3]: 12% | inhibition at 0.1 µM [4]: -21%
